Data published in patent US5312816A, “Method of combatting osteoporosis in mammalian subjects, utilizing organic boron compounds” (priority 1993, dated 1994).

Columns and labels:
[1] = biological target: T1, 5'-lipoxygenase (Mus musculus, UniProt P48999); test: Mouse hepatic 5'-lipoxygenase activity; assay type: biochemical; conditions: Table VI; mouse hepatic, 60 min incubation; read-out: 5'-lipoxygenase IC50
T1 construct: Cf1 male mouse hepatic 10% homogenates; from tissue; host or cells: CF1 male mouse liver, 10% homogenate
T1 sequence (P48999 1-674): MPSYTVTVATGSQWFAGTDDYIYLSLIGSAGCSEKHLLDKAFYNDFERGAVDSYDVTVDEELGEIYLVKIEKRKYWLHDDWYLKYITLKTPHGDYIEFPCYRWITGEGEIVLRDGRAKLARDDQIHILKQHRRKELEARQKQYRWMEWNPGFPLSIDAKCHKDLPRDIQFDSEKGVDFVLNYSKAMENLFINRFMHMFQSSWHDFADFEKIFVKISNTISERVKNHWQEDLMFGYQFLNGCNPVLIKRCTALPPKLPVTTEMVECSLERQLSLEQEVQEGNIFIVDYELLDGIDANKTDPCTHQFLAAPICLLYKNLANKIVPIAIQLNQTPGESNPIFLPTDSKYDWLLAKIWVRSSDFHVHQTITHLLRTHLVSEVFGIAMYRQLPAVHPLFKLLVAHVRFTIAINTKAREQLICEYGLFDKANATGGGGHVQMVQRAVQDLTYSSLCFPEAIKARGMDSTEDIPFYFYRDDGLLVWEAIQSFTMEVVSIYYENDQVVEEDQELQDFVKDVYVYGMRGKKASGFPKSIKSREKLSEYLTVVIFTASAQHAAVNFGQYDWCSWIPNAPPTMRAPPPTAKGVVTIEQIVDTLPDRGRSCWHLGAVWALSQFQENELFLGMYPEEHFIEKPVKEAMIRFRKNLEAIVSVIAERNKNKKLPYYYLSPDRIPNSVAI
From the text: (§1) 1. Cf1 male mouse hepatic 10% homogenates in 0.25M sucrose+0.001MEDTA,pH 7.2.
5'-lipoxygenase Mylari, B.L., et al, J. Med.

[2] = biological target: T2, Porcine Pancreatic Elastase (Sus scrofa, UniProt P00772); test: Porcine pancreatic elastase activity in vitro; assay type: biochemical; conditions: Table IX; commercial enzyme preparation
T2 construct: purchased; host or cells: porcine pancreas
T2 sequence (P00772 27-266): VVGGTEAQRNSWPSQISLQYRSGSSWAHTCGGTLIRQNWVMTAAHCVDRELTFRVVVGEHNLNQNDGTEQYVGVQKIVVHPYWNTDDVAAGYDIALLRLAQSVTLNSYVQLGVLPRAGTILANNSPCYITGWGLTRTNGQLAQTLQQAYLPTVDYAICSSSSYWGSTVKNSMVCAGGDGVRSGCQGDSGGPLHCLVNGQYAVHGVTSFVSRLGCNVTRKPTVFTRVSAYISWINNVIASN
From the text: (§2) 2. Elastase- N-succinyl-L-alanyl-L-alanine-p-nitroanilide, pH 8.0, p-nitro anilide 410 nm.

[3] = test system: Prostaglandin cyclooxygenase; test: Mouse macrophage prostaglandin cyclooxygenase activity; assay type: cell-based; conditions: Table VIII; mouse macrophages, 60 min incubation; read-out: Prostaglandin Cyclooxygenase IC50
From the text: 3. Mouse macrophages J774A.1 BALB/c
Prostaglandin synthetase purified beef seminal vesicle ^3 H arachidonic acid (86.2 Ci/mmol), tlc separation.

[4] = test system: Hydroxyproline; test: Serum and urine hydroxyproline levels in vivo; conditions: Cf1 male mice, 8 mg/kg/day I.P. 14 days, N=6
[5] = test system: Cf1 male mice; test: Writhing reflex, 0.6% acetic acid; assay type: in vivo; conditions: Mus musculus, ip; Table IV
[6] = test system: Pg-E2 synthesis; test: 3H-Arachidonic acid conversion to Pg-E2, macrophage; assay type: cell-based, mouse
[7] = test system: Trypsin; test: Human osteoporosis fibroblasts trypsin (BAEE) activity; assay type: cell-based
From the text: (§3) 1. Trypsin- N-benzoyl-L-arginine ethyl ester pH 8.0, hydrolytic product 253 nm.

[8] = test system: Elastase; test: Mouse macrophage elastase activity; assay type: cell-based; conditions: Table VIII; mouse macrophages, 60 min incubation; read-out: Elastase IC50
[9] = test system: Pg-E2 synthesis; test: 3H-Arachidonic acid conversion to Pg-E2, CF1 hepatic liver; assay type: biochemical, mouse
[10] = test system: Trypsin; test: Mouse hepatic trypsin activity; assay type: biochemical; conditions: Table VI; mouse hepatic, 60 min incubation; read-out: Trypsin IC50
From the text: as §1, §3

[11] = biological target: T3, Cathepsin D (Mus musculus, UniProt P18242); test: Mouse hepatic lysosomal cathepsin D activity; assay type: biochemical; conditions: Table V; mouse hepatic, 60 min incubation; read-out: Cathepsin D IC50
T3 construct: azocasein assay pH 5.0
T3 sequence (P18242 65-410): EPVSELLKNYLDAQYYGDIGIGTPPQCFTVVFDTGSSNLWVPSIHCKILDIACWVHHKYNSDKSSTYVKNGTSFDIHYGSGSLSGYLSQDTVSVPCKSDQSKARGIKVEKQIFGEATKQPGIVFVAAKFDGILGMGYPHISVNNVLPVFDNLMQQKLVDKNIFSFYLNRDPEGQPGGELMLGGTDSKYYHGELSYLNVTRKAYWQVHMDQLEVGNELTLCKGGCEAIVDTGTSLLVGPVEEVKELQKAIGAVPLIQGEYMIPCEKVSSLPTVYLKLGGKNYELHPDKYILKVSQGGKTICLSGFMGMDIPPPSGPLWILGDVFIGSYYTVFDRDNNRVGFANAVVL
From the text: as §1
(§4) Lysosomal Enzymes - free and total [triton X-100].
2. Acid Cathepsin D -azocasein-pH 5.0, hydrolytic azo-peptide produce 366 nm.
Cathepsin azo casein activity -

[12] = test system: Acid phosphatase; test: Human osteoporosis fibroblasts acid phosphatase activity; assay type: cell-based
From the text: (§5) 1. Acid phosphatase -beta glycerol-3-phosphate, pH 5.0, released IP 720 nm.

[13] = test system: Prostaglandin cyclooxygenase; test: Human osteoporosis fibroblasts prostaglandin cyclooxygenase activity; assay type: cell-based; conditions: Table XI, 60 min incubation, read-out: Prostaglandin Cyclooxygense IC50
[14] = biological target: Clostridium histolyticum Collagenase Type II; test: Commercial collagenase type II; assay type: biochemical; conditions: Table IX; commercial enzyme preparation
From the text: 4. Collagenase II, Clostridium histolyticum, cartilage collagen.

[15] = test system: Elastase; test: Human osteoporosis fibroblasts elastase activity; assay type: cell-based
From the text: as §2

[16] = test system: lysosomal and proteolytic enzymes; test: Osteoporosis fibroblasts lysosomal and proteolytic enzymes (statement); assay type: cell-based, human
[17] = test system: Aryl sulphatase; test: Human osteoporosis fibroblasts aryl sulphatase activity; assay type: cell-based
From the text: 3. Aryl sulphatase- p-nitrocatechol sulfate, pH
5. 8 p-nitro-catechol product 510 nm.

[18] = test system: Acid phosphatase; test: Mouse macrophage acid phosphatase activity; assay type: cell-based; conditions: Table VII; mouse macrophage cultured cells, 60 min incubation; read-out: Acid Phosphatase IC50
[19] = test system: Calcium; test: Serum and urine calcium levels in vivo; conditions: Cf1 male mice, 8 mg/kg/day I.P. 14 days, N=6
[20] = test system: Aryl sulphatase; test: Mouse macrophage aryl sulphatase activity; assay type: cell-based; conditions: Table VII; mouse macrophage cultured cells, 60 min incubation; read-out: Aryl Sulphatase IC50
[21] = biological target: Acid phosphatase; test: Mouse hepatic lysosomal acid phosphatase activity; assay type: biochemical; conditions: Table V; mouse hepatic, 60 min incubation
From the text: as §1, §4, §5
Acid phosphatase activity -

[22] = test system: Trypsin; test: Mouse macrophage trypsin (BAEE) activity; assay type: cell-based; conditions: Table VIII; mouse macrophages, 60 min incubation; read-out: Trypsin BAEE IC50
[23] = biological target: Clostridium histolyticum Collagenase Type I; test: Commercial collagenase type I; assay type: biochemical; conditions: Table IX; commercial enzyme preparation
From the text: 3. Collagenase I, Clostridium histolyticum, bone, skin, tendon, blood vessel, dentine, GI. substrate: rat collagen, N-[propionate-2-3-^3 H] propionylated measured as dpm released.

[24] = biological target: Elastase; test: Mouse hepatic elastase activity; assay type: biochemical; conditions: Table VI, 60 min incubation
From the text: as §1, §2
Elastase activity - in vitro

CCCCCCCCCCCCCCCC[N+](C)(C)[BH2-]C(=O)O [Compound 7, N,N-Dimethylhexadecylamine-carboxyborane]
IC50 [1]: 55.8 µM | IC50 [2]: 49.7 µM | IC50 [3]: 2.55 µM | Hydroxyproline serum [4]: 84.1 % Control | Hydroxyproline urine [4]: 28.7 % Control | response vs control in vivo at 20 mg/kg [5]: 54% | macrophage Pg-E2 synthesis reduced [6]: 20% | 3H-Arachidonic acid conversion to Pg-E2 reduced ([6]; macrophage): 29% | IC50 ([7]; Table VIIIA, osteoporosis fibroblasts in vitro, read-out: Trypsin (BAEE) IC-50): 7.4 µM | IC50 ([7]; Table XI, human osteoporosis fibroblasts, 60 min incubation, read-out: Trypsin BAEE IC50): 7.4 µM | IC50 [8]: 1.8 µM | hepatic Pg-E2 synthesis reduced [9]: 32% | 3H-Arachidonic acid conversion to Pg-E2 reduced ([9]; CF1 hepatic liver): 43% | IC50 [10]: 1.16 µM | IC50 [11]: 2.82 µM | IC50 ([12]; Table VIIIA, osteoporosis fibroblasts in vitro, read-out: Acid Phosphatase IC-50): 16.6 µM | IC50 ([12]; Table X, human osteoporosis fibroblasts, read-out: Acid Phosphatase IC50): 16.6 µM | IC50 [13]: 6.77 µM | IC50 [14]: 109 µM | IC50 ([15]; Table VIIIA, osteoporosis fibroblasts in vitro, read-out: Elastase IC-50): 3.86 µM | IC50 ([15]; Table XI, human osteoporosis fibroblasts, 60 min incubation, read-out: Elastase IC50): 3.86 µM | inhibition of lysosomal and proteolytic enzymes of osteoporosis fibroblasts [16]: potent inhibitors | IC50 ([17]; Table VIIIA, osteoporosis fibroblasts in vitro, read-out: Aryl Sulfatase IC-50): 9.01 µM | IC50 ([17]; Table X, human osteoporosis fibroblasts, read-out: Aryl Sulphatase IC50): 9.01 µM | IC50 [18]: 0.94 µM | Calcium urine [19]: 80.7 % Control | IC50 [20]: 9.71 µM | IC50 [21]: 8.86 µM | IC50 [22]: 1.26 µM | IC50 [23]: 615 µM | IC50 [24]: 49.6 µM
